# Measurements: patent US11529319B2, “Methods and compositions for treating neurological conditions” (priority 2017, dated 2022)
# Entries after “also recorded” stand apart in the source; their conditions may differ.
# Key:
# [1] = test system: Tsc2+/- mice; experiment: Quantitative confocal immunohistochemistry of synaptophysin (SY38) in hippocampus; type: in vivo, mouse; details: i.p. loading 92 μmol/kg then 4.6 μmol/kg twice daily, two and a half days
# Text: To determine the effects of […] antagonists on the brain histology of Tsc2^+/- mice, quantitative confocal immunohistochemistry was used to analyze coronal brain slices from 3-month-old wild-type (WT) and Tsc2^+/- mice that had been treated for two and a half days with vehicle, memantine or NitroSynapsin. Tsc2+/- mice on the C57Bl/6J background received via the intraperitoneal route either vehicle or a loading dose of 92 μmol/kg of memantine or NitroSynapsin, followed by 4.6 μmol/kg of drug twice daily for two-and-a-half-days, with the last dose 3 hours prior to the behavioral training session (for a total of five drug injections). This dosing regimen yields an effective concentration of drug at NMDARs in the brain of 1-10 μM.
# [2] = test system: Mef2c-het mice; experiment: Immunohistochemistry and stereological cell counting in hippocampus after chronic treatment; type: in vivo, mouse
# Text: (§1) Mef2c heterozygous knockout (Mef2c-het) mice were created by crossing mice carrying the conventional exon 2-deleted allele of Mef2c (Mef2c^Δ2) with their WT littermates. All procedures for maintaining and using these mice were approved by the Institutional Animal Care and Use Committee (IACUC) at the Sanford Burnham Prebys Medical Discovery Institute. In this study, only male mice were used for the behavioral assays to insure uniformity (either with or without drug treatment). Chronic treatment with memantine, NitroSynapsin (both at 4.6 μmol/kg body weight) or vehicle (PBS) was administered via i.p. injection, twice a day for at least 3 months, starting at ˜2.5 weeks of age. This age was chosen because mice are still juveniles and thus treatment could begin in human at an equivalent stage.
# Mice were perfused with PBS buffer and then 2% paraformaldehyde in PBS (PFA).
# After perfusion, brains were removed and placed into 2% PFA overnight for post-fixation and then sunk in 30% sucrose in PBS prior to freezing. Cryostat sections were cut at a thickness of 15 μm. Sections were soaked in Antigen Unmasking Solution (Vector) and microwaved for 30 s, followed by permeabilization with 0.25% Triton X-100 in PBS for 15 min. Primary antibodies were incubated for 16 h at 4° C. and fluorescence-conjugated secondary antibodies for 2 h at 25° C. Numerous unstained cells in each field served as an internal control for staining specificity. Primary antibodies included: NeuN (mouse, EMD Millipore), activated caspase-3 (rabbit, Cell Signaling), VGLUT1 (guinea pig, SYSY), VGLUT2 (rabbit, SYSY), VGAT (mouse, SYSY), synaptophysin (mouse, Sigma), GFAP (mouse, Sigma), PCNA (mouse, Santa Cruz), DCX (goat, Santa Cruz). TUNEL assay was performed to assess apoptosis using the Roche In Situ Cell Death Detection Kit per vender's instruction. The number of cells positive or percent area occupied by NeuN, activated caspase-3, TUNEL, GFAP, PCNA, or DCX was counted in specific brain regions using an optical dissector, or estimated by quantitative confocal immunohistochemistry or optical density, as described previously.
# [3] = test system: Mef2c-het mice; experiment: Motor behavioral tests and paw clasping; type: in vivo, mouse; details: 3-month treatment
# Text: as §1, with “This age was chosen because mice are still juveniles and thus treatment could begin in human at an equivalent stage.” left out
# Balance was measured by the latency to fall off the elevated (40 cm) horizontal rod (50 cm long) in four 20 sec trials. […] Traction capacity was measured over three 5 s trials as the ability of the animal to raise the hind limbs while remaining suspended by the forepaws grasped around an elevated horizontal bar (2 mm diameter). […] Muscle Strength was determined by one trial of 60 s in which the mice were placed in the middle of the horizontal bar in an upside-down position and the latency until falling down was measured. […] The latency to turn downward and the total time to descend to the floor over 3 trials was recorded.
# [4] = test system: hippocampal slices of Tsc2+/- mice; experiment: CA1 LTP in acute hippocampal slices by multielectrode array; type: cell-based, mouse; details: 1-2 μM, 4-hour treatment; monitored 55-65 min after induction; vs vehicle
# Procedure: Long-term potentiation (LTP), a form of synaptic plasticity elicited in response to excitatory input and thought to represent an electrical correlate of learning and memory in the hippocampus, was examined. Field recordings in the CA1 region of hippocampal slices were used to investigate the effects of Tsc2 mutation on this form of synaptic plasticity. For this purpose, acute hippocampal slices from one-month-old mice were prepared and field recordings in a microelectrode array (MEA) chamber perfused with artificial cerebrospinal fluid (ACSF) were performed. fEPSPs (field excitatory postsynaptic potentials) were recorded in the CA1 region after evoking LTP via stimulation of the Schaffer collaterals (four repetitions of 100 Hz pulses for one second each). The initial slope of the fEPSP was analyzed to assess LTP. However, with a stronger induction protocol as used here, we observed a decrease in LTP, monitored 60 min after induction.
# [5] = test system: Mef2c-het mice; experiment: Morris water maze (spatial learning and memory); type: in vivo, mouse
# Text: as §1
# We tested spatial reference learning and memory using a version of the conventional Morris water maze. The mice were trained to swim to a platform 14 cm in diameter and submerged 1.5 cm beneath the surface of the water. The platform was invisible to the mice while swimming. […] Mice were given 4 trials a day for as many days as necessary to reach the criterion (<20 s mean escape latency). Retention of spatial training was assessed 24 h after the last training trial. Both probe trials consisted of a 60-s free swim in the pool without the platform. The ANY-maze video tracking system (Stoelting Co.) was used to videotape all trials for automated analysis.
compound,measurement,setting,value
CCC12CC3(N)CC(CC)(C1)CC(O[N+](=O)[O-])(C3)C2 [NitroSynapsin],synaptophysin (SY38) staining in hippocampus (% area),[1],all improved; also recorded: significantly more staining; also recorded: reversed the synaptic loss; also recorded: raised the synaptic signal to WT levels
same,PV-immunoreactive synapses (% area),[2],significantly increased; also recorded: significantly ameliorated
same,"TUNEL-positive neurons, hippocampal CA3",[2],reduced back to normal; also recorded: ameliorated in Het/N mice
same,VGAT immunoreactivity in hippocampus,[2],normalized; also recorded: rescue
same,VGLUT1 immunoreactivity in hippocampus,[2],unaltered
same,VGLUT2 immunoreactivity in hippocampus,[2],normalized; also recorded: rescue
same,"activated caspase-3-positive neurons, hippocampal CA3",[2],reduced back to normal; also recorded: ameliorated in Het/N mice
same,number of GFAP+ cells (astrocytes) in hippocampus,[2],normalized the number of GFAP+ cells; also recorded: restored to WT levels
same,ratio of VGLUT1/VGAT,[2],normalized; also recorded: rescue
same,ratio of VGLUT2/VGAT,[2],normalized; also recorded: rescue
same,total number of NeuN+ cells in hippocampus,[2]; optical dissector,significantly greater than in Het/V mice; also recorded: significantly greater effect of NitroSynapsin over memantine; also recorded: significantly greater than in vehicle (V)-treated mice; also recorded: rescue
same,paw clasping,[3],did not improve the paw clasping phenotype; also recorded: not rescued
same,CA1 LTP in Tsc2+/- hippocampal slices,[4],all improved; also recorded: improved LTP; also recorded: able to reverse deficits in synaptic plasticity; also recorded: improvement of LTP
same,latency of finding hidden platform during training sessions,"[5]; Mef2c-het mice, 4.6 μmol/kg i.p. twice a day, 3 months",improved performance relative to vehicle
same,"probe test, time in target vs opposite quadrant (memory retention)","[5]; Mef2c-het mice, 4.6 μmol/kg i.p. twice a day, 3 months, 24 h after last training",normalized memory function; also recorded: rescued this effect
same,effect on Morris water maze in WT mice,"[5]; WT mice, 3-month treatment",no effects
